Laboratory results from paper PMC7836013, “Characterization of Formononetin Sulfonation in SULT1A3 Overexpressing HKE293 Cells: Involvement of Multidrug Resistance-Associated Protein 4 in Excretion of Sulfate” (Frontiers in Pharmacology, 2021).
Structures can show the parent of a compound that is named as a salt. Values belong to the compound of their own block, whether it stands above or below them.

Key:
[1] = parameters: method as in Singh and Wahajuddin, 2011; details: ref Singh and Wahajuddin, 2011; cited from earlier work
HEK-SULT1A3 cell lysate [2] = molecular target: T1, HEK-SULT1A3 cell lysate (Homo sapiens, UniProt P0DMM9); assay: Formononetin sulfonation enzyme kinetics in HEK-SULT1A3 cell lysate; format: in vitro ADME; details: Michaelis-Menten, mean ± SD (n = 3)
T1 construct: expressed in transfected cells; cell lysate used
Experimental: Enzyme kinetic of formononetin incubated with recombinant human SULT1A3 enzyme (rSULT1A3) was evaluated. The reaction was activated after the coenzyme PAPS (which provides sulfonate group to the substrates) was added. The incubation reaction was conducted in 200 μL potassium phosphate buffer (50 mM, pH 7.4) at 37°C, containing SULT1A3 enzyme (0.1 mg/ml), formononetin (0.16–40 μM), and PAPS (a final concentration of 0.10 mM). After incubation for 120 min, the reaction was terminated by adding 100 μL ice-cold acetonitrile. Then the samples were vortexed and centrifuged at 15,000 g for 15 min. The supernatant was analyzed by HPLC for sulfate quantification. All incubations were performed in triplicate. Preliminary experiments were performed to ensure that the rates of sulfation were determined under linear conditions with respect to incubation time and protein concentration.
The sulfonation rates of formononetin at different concentrations were determined according to the sulfonation assay protocol. […] The intrinsic clearance (CLint) was calculated by Vmax/Km.
Quantification of formononetin sulfate was performed using Agilent 1,260 Infinity II HPLC system with a ZORBAX SB-C18 column (4.6 × 250 mm, 5 μm; Agilent). […] The samples were analyzed using a gradient of ammonium acetate (2.5 mM) in water (mobile phase A) vs. acetonitrile (mobile phase B) at a flow rate of 1.0 ml/min. […]

MRP4 [3] = molecular target: T2, MRP4 (Homo sapiens, UniProt O15439); assay: Effect of shRNA-mediated MRP4 knockdown on formononetin disposition in HEK-SULT1A3 cells; format: cell-based; details: shMRP4 vs scramble, formononetin 2.5 and 10 μM
T2 construct: MRP4 was the only expressed MRPs family transporter in HEK-SULT1A3 cells; endogenous in cells; host or cells: HEK-SULT1A3 cells (HEK293 stably expressing SULT1A3)
T2 sequence (O15439 1-1325): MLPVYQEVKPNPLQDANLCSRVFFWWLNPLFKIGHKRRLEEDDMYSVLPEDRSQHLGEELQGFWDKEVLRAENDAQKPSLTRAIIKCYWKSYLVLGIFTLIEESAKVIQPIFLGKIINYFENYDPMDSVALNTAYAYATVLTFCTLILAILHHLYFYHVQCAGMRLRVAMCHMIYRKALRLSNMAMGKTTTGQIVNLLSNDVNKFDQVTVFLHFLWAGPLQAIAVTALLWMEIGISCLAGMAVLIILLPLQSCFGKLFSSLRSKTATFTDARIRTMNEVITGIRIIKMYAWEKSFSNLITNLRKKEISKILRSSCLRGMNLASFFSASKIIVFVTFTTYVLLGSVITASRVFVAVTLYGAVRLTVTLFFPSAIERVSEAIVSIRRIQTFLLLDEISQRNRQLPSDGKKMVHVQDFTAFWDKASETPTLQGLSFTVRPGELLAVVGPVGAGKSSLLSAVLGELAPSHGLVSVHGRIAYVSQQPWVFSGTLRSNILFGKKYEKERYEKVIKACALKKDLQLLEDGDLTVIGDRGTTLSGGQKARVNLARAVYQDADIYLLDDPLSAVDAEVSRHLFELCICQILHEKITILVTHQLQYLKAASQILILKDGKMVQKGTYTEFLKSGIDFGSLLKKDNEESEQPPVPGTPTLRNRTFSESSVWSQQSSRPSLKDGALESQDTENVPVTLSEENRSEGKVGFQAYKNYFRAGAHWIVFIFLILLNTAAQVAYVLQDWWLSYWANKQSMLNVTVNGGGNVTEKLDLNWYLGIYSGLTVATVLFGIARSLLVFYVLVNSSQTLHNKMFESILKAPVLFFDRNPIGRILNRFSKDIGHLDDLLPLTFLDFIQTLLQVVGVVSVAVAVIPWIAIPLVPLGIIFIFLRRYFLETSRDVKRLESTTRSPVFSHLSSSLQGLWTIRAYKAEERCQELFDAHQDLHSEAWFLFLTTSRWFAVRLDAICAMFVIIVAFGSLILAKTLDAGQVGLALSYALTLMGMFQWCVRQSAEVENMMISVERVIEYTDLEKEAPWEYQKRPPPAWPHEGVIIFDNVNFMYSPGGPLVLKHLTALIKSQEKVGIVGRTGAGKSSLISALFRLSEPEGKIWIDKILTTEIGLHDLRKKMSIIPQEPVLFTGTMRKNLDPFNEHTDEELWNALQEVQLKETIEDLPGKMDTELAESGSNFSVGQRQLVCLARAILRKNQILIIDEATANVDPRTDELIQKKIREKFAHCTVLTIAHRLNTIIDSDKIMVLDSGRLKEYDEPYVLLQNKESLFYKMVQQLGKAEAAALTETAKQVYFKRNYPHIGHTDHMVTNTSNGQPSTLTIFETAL
Experimental: The sulfate excretion experiments were conducted using HEK-SULT1A3 cells model. In brief, HEK-SULT1A3 cells were washed with Hank's Balanced Salt Solution (HBSS) buffer (37°C, pH = 7.2) for three times. Then the cells were incubated with 2 ml HBSS buffer containing different concentrations of formononetin (final concentrations of 2.5 μM or 10 μM) at 37°C. 200 μL of incubation medium was sampled from each well at various times (0.5, 1.0, 1.5, and 2.0 h). Meanwhile, 200 μL of dosing solution was added immediately. The extracted samples were mixed with 100 μL ice-cold acetonitrile and vortexed for 1 min. The supernatant after centrifugation (15,000 g; 15 min) was injected into HPLC for analysis. After the last samples were taken, cells were collected into 400 μL ice-cold MeOH:H2O (1:1, v/v) and processed to measure the intracellular amount of formononetin sulfate. The excretion rate (ER) of intracellular sulfate was calculated exactly as described in our publications (Liu et al., 2018). The apparent efflux clearance (CLef,app) was derived as the excretion rate divided by the intracellular concentration of sulfate (Ci). Ci was determined by dividing intracellular amount of sulfate at 2 h by intracellular volume. The intracellular volume of HEK293 cells was measured using sulfanilamide as described ([Zhou et al., 2015]). […] Further, the fraction of dose metabolized (fmet), an indicator of the extent of drug sulfonation, was calculated according to Eq. 2. fmet=excreted sulfate+intracellular sulfate/total dosed aglycone (2) The cells were collected and lysed in RIPA Lysis Buffer (Beyotime, Shanghai) in advance. After quantified using BCA protein assay kit (Thermo Scientific, Waltham, Massachusetts), the cells samples or individual human intestine S9 fractions were analyzed by sodium dodecyl sulfate polyacrylamide gel electrophoresis (10% acrylamide gels) and transferred to polyvinylidene fluoride membranes ([…], Millipore, Bedford, MA). […] And then the protein bands were scanned in grayscale and subjected to semiquantitative analysis using Quantity One software.

HEK-SULT1A3 cell lysate [4] = molecular target: T1, HEK-SULT1A3 cell lysate; assay: Effect of chemical inhibitors on formononetin sulfonation in HEK-SULT1A3 cell lysate; format: in vitro ADME; details: inhibitor 5–20 μM, formononetin 2.5 and 10 μM, p > 0.05
MRP4 [5] = molecular target: T2, MRP4; assay: Effect of MK-571 on formononetin sulfate excretion in HEK-SULT1A3 cells; format: cell-based
Experimental: The sulfate excretion experiments were conducted using HEK-SULT1A3 cells model. In brief, HEK-SULT1A3 cells were washed with Hank's Balanced Salt Solution (HBSS) buffer (37°C, pH = 7.2) for three times. Then the cells were incubated with 2 ml HBSS buffer containing different concentrations of formononetin (final concentrations of 2.5 μM or 10 μM) at 37°C. 200 μL of incubation medium was sampled from each well at various times (0.5, 1.0, 1.5, and 2.0 h). Meanwhile, 200 μL of dosing solution was added immediately. The extracted samples were mixed with 100 μL ice-cold acetonitrile and vortexed for 1 min. The supernatant after centrifugation (15,000 g; 15 min) was injected into HPLC for analysis. After the last samples were taken, cells were collected into 400 μL ice-cold MeOH:H2O (1:1, v/v) and processed to measure the intracellular amount of formononetin sulfate. The excretion rate (ER) of intracellular sulfate was calculated exactly as described in our publications (Liu et al., 2018). The apparent efflux clearance (CLef,app) was derived as the excretion rate divided by the intracellular concentration of sulfate (Ci). Ci was determined by dividing intracellular amount of sulfate at 2 h by intracellular volume. The intracellular volume of HEK293 cells was measured using sulfanilamide as described ([Zhou et al., 2015]).

[6] = MK-571 5–20 μM, formononetin 2.5 μM, p < 0.001
[7] = MK-571 5–20 μM, formononetin 10 μM, p < 0.001

T1 sequence (P0DMM9 whole entry): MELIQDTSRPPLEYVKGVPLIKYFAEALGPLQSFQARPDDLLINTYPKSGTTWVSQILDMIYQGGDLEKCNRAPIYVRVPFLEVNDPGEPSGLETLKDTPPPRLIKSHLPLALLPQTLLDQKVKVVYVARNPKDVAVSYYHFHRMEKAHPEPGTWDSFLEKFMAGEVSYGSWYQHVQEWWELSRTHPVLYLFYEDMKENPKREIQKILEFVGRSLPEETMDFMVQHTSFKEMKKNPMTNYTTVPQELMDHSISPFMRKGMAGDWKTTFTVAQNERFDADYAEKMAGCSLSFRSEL

Vmax of formononetin sulfonation (HEK-SULT1A3 cell lysate [2]): 13.94 ± 0.83 pmol/min/mg
SMILES: COc1ccc(-c2coc3cc(O)ccc3c2=O)cc1 [formononetin, Formononetin]
Bioavailability of unchanged formononetin [1]: approximately 3%

Decrease in CLef,app of F-O-S on MRP4 knockdown (MRP4 [3]; p < 0.01): > 50.6% | Reduction in sulfate excretion rates on MRP4 knockdown (MRP4 [3]; p < 0.01): > 32.8% | Elevation in intracellular amounts of F-O-S on MRP4 knockdown (MRP4 [3]; p < 0.05): > 127.4%
SMILES: COc1ccc(-c2coc3cc(OS(=O)(=O)O)ccc3c2=O)cc1 [F-O-S, formononetin sulfate]

Effect of inhibitor on formononetin sulfonation (generation of F-O-S) (HEK-SULT1A3 cell lysate [4]): did not alter | Decrease of CLef,app of F-O-S (MRP4 [5]; [6]): 85.3%–98.0% | Reduction in excretion of F-O-S (MRP4 [5]; [6]): 79.1%–94.6% | Decrease of excretion rates of F-O-S (MRP4 [5]; [7]): 79.8%–95.7% | Increase of intracellular level of F-O-S (MRP4 [5]; [7]): 160.6%–188.8% | Reduction of CLef,app of F-O-S (MRP4 [5]; [7]): 87.3%–97.7% | Suppression of excretion of formononetin sulfate (MRP4 [5]; MK-571 at 20 μM): > 94%
SMILES: CN(C)C(=O)CCSC(SCCC(=O)O)c1cccc(/C=C/c2ccc3ccc(Cl)cc3n2)c1 (stereo not drawn) [MK-571]
